The text below walks through data of paper PMC6009886, “Methanethiosulfonate derivatives as ligands of the STAT3-SH2 domain” (Journal of Enzyme Inhibition and Medicinal Chemistry, 2017).

The inhibition is the change of the read-out against control, counted positive when it falls. As usually defined, the IC50 is the concentration needed to halve the response being measured.

The structures appear in SMILES notation. Counter-ions that a name gives are not always drawn. Marks after values point to notes of the source that are not given here.

In series [1] the test system is T1, Grb2 (Growth factor receptor-bound protein 2).
T1 construct: First, 75 nM of each SH2-containing protein was incubated with the test compound for 15 min
The experiment in a line: AlphaScreen-based assay, selectivity versus Grb2. The conditions noted are these: a = mean of two experiments. The class given is binding. As for the experimental part:
(§1) STAT3 inhibitory activity of the described compounds was tested by the AlphaScreen-based assay to evaluate the potential inhibition of the interaction between STAT3-SH2 domain and pTyr-containing peptides according to the previously reported procedure. For the most interesting compounds, selectivity tests versus STAT1 and Grb2 (Growth factor receptor-bound protein 2) were performed. AlphaScreen is a bead-based nonradioactive assay system for detecting biomolecular interactions in a microtiter plate format. Binding of biological partners brings donor and acceptor beads into close proximity and as result, a luminescent signal between 520 and 620 nm is produced. The AlphaScreen-based assays were typically performed in a final reaction volume of 25 μl of the assay buffer containing 10 mM HEPES–NaOH (pH 7.4), 50 mM NaCl, 1 mM EDTA (pH 8.0), 0.1% NP-40, and 10 ng/μl BSA in a 96-well microtiter plate at 25 °C. Phospho-Tyr (pTyr) peptide probes used in this study were 5-carboxyfluorescein (FITC)-GpYLPQTV for STAT3, FITC-GpYDKPHVL for STAT1, and FITC-PSpYVNVQN for Grb2. First, 75 nM of each SH2-containing protein was incubated with the test compound for 15 min. Each protein sample was then incubated for 90 min with 50 nM of its corresponding FITC-pTyr peptide, and mixed with streptavidin-coated donor beads and anti-FITC acceptor beads simultaneously before detection at 570 nm using EnVisonXcite (Perkin Elmer, Waltham, MA).
(In general: Bead proximity is the source of the signal in Alpha formats.)

Series [2] has as its target T2, STAT3-SH2 domain (Homo sapiens, UniProt P40763).
T2 construct: First, 75 nM of each SH2-containing protein was incubated with the test compound for 15 min
The experiment in a line: AlphaScreen-based assay, STAT3-SH2 domain / pTyr peptide binding. The following applies: for inhibition at 30 µM: a = mean of two experiments; for IC50: read-out: STAT3 IC50 (μM) ± SD.

Series [3] addresses T3, STAT1 (Homo sapiens, UniProt P42224).
T3 construct: First, 75 nM of each SH2-containing protein was incubated with the test compound for 15 min
T3 sequence (P42224 1-750): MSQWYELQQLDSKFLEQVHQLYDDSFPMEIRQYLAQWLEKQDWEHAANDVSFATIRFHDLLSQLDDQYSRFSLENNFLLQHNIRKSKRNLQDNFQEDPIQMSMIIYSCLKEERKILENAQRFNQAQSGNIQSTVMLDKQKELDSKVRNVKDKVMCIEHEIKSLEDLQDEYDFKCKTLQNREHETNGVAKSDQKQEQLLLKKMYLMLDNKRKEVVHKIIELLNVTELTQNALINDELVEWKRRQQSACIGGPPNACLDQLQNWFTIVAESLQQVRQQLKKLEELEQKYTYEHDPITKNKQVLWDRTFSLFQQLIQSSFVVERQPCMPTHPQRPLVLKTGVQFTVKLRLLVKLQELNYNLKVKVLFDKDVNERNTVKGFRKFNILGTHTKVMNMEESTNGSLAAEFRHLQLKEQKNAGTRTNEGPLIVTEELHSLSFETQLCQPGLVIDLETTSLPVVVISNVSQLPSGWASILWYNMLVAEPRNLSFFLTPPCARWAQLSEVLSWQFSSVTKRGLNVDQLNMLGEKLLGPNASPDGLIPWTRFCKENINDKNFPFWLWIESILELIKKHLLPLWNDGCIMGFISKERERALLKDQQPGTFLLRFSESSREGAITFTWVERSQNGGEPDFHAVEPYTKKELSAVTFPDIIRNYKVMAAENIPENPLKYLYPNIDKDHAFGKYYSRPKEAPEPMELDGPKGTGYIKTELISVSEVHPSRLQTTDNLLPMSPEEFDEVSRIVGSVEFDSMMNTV
Description: AlphaScreen-based assay, selectivity versus STAT1. The conditions noted are these: for IC50: read-out: STAT1 IC50 (μM) ± SD. Type of series: binding. As for the experimental part:
as §1

The test system of series [4] is HCT-116 cell line. The experiment in a line: MTT assay, cytotoxicity on HCT-116 cell line. Type of series: cell-based, human. The conditions noted are these: for antiproliferative / cytotoxic activity on HCT-116 cell line (in words): 48 h treatment; for IC50: Homo sapiens, HCT-116, 48 h treatment, NA: not active up to 200 μM, read-out: HCT-116 IC50 (μM) ± SD. As for the experimental part:
The colorectal cancer HCT116 cells were cultured in McCoy’s media supplemented with penicillin (10,000 U/ml), streptomycin (10 mg/ml), nonessential amino acid, and 10% fetal calf serum (FCS). Cells were then seeded in 48 well plates and, after 24 h, they were incubated with different concentration of newly synthesized compounds dissolved in DMSO.
After 48 h of treatment, medium was removed from each well, and cells were incubated with fresh medium, containing 10% (v/v) of MTT (3-(4,5-dimethyl-2-thiazolyl)-2,5-diphenyl-2H-tetrazolium bromide) reagent. MTT, by interacting with vital cells mitochondria, is converted to formazan, with the development of visible purple crystals. After dissolving these crystals with isopropanol-HCl, the quantification of the conversion of MTT to formazan is determined through spectrophotometer analysis (595 nM), as previously described.
Background: Tetrazolium assays rely on reduction of a dye to a coloured formazan, in cell work by metabolically active cells.

Series [5] relates to STAT3 homodimers. Further details: method as in PMID 17463090. The following applies: read-out: IC50, blocked the formation of STAT3 homodimers; cited from earlier work.

T2 sequence (P40763 whole entry, the tested form may be a part): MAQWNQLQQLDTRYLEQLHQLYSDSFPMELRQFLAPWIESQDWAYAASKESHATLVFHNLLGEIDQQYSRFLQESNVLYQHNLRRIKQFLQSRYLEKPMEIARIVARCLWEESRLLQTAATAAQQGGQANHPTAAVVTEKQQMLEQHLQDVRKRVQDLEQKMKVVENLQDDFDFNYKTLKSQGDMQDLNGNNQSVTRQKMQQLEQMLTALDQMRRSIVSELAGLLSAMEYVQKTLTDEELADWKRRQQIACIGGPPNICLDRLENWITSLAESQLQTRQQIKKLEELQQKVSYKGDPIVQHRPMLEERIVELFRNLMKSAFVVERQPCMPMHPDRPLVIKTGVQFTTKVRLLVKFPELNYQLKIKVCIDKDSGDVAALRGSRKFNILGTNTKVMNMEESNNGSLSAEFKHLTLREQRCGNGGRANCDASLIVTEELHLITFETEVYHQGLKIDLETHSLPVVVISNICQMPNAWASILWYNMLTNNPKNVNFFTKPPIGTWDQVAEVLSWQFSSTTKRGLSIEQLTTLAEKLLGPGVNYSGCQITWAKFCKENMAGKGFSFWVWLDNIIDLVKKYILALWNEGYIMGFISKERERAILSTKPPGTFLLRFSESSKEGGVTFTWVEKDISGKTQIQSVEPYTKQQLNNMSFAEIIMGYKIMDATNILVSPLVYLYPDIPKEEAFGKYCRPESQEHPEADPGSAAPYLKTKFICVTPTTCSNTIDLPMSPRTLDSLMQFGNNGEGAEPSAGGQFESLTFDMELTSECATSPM

As to `CC(=O)Oc1ccccc1C(=O)OCCSS(C)(=O)=O` [Compound 4, 2-Acetoxybenzoic acid 2-methanesulfonylsulfanyl-ethyl ester], the “Grb2 % Inhibition 3 μM” value in series [1] is given as 15.9^a %. In addition, in series [2], the inhibition at 3 µM amounted to 93.5 ± 2.6%, the inhibition at 30 µM came to 100 ± 0.1% and the IC50 was 1.4 ± 0.1 µM. Further, in series [3], the inhibition at 3 µM was determined as 44.2 ± 0.8%, the inhibition at 30 µM was 99.8 ± 0.4% and the IC50 was determined as 3.6 µM. Also, in series [4], the “antiproliferative / cytotoxic activity on HCT-116 cell line (in words)” value (from here on “antiproliferative / cytotoxic activity”) is reported as “moderate antiproliferative activity” and the IC50 turned out to be 87.9 ± 11.4 µM.
As for `CS(=O)(=O)SCCO` [Compound 9, S-(2-hydroxyethyl) methanesulfonothioate, reference compound], the IC50 in series [2] was above 30 µM.
On to `O=C(O)Cc1ccccc1Nc1c(Cl)cccc1Cl` [Diclofenac sodium salt, reference compound], for which the inhibition at 30 µM in series [2] was 4.5 ± 2.4%; in series [3] it was 6.5 ± 2.1%. Besides, the IC50 in series [2] and in series [3] was above 30 µM in each case.
As to `CS(=O)(=O)CSC(=O)c1ccc(N)cc1O` [Compound 8, S-((methylsulfonyl)methyl) 4-amino-2-hydroxybenzothioate], in series [2], the inhibition at 30 µM is 41.8 ± 0.9% and the IC50 is above 30 µM. Also, in series [2] (highest concentration tested 30 μM), the “inhibition / binding of STAT3-SH2 domain (in words)” value is given as “moderately inhibited”. Besides, in series [4], the “antiproliferative / cytotoxic activity” value is reported as “good cytotoxic activity” and the concentration for half-maximal inhibition (IC50) is 26.3 ± 11.6 µM.
With `CCCC(CCC)C(=O)OCCSS(C)(=O)=O` [Compound 1, 2-((Methylsulfonyl)thio)ethyl 2-propylpentanoate], the “Grb2 % Inhibition 3 μM” value in series [1] is on record as 76.0^a %. Besides, in series [2], the inhibition at 3 µM worked out at 101 ± 2.2%, the inhibition at 30 µM worked out at 102% and the IC50 is 0.7 ± 0.1 µM. In addition, in series [3], the inhibition at 3 µM is 44.9 ± 10.5% and the IC50 was above 3 µM. Moreover, in series [4], the “antiproliferative / cytotoxic activity” value is on record as “moderate antiproliferative activity” and the IC50 was found to be 136 ± 2.2 µM.
For the molecule `CC1=C(CC(=O)OCCSS(C)(=O)=O)c2cc(F)ccc2/C1=C\c1ccc([S+](C)[O-])cc1` (centres unmarked) [Compound 3, (Z)-5-fluoro-2-methyl-1-[[4-(methylsulfinyl)phenyl]methylene]-1H-indene-3-acetic acid 2-methanesulfonylsulfanylethyl ester], the “Grb2 % Inhibition 3 μM” value in series [1] was 74.6^a %. Moreover, in series [2], the inhibition at 3 µM was determined as 105 ± 8.2%, the inhibition at 30 µM is 102% and the IC50 came to 0.5 ± 0.1 µM. Also, in series [3], the inhibition at 3 µM was found to be 46.7 ± 1.1% and the half-inhibitory concentration (IC50) was above 3 µM. Moreover, in series [4], the “antiproliferative / cytotoxic activity” value was “moderate antiproliferative activity” and the IC50 came out at 104 ± 10.9 µM.
For the molecule `Cc1ccc(S(=O)(=O)OCC(=O)Nc2ccc(C(=O)O)c(O)c2)cc1` [Compound S3I-301, reference compound], the IC50 was 86 µM in series [5] and 39.5 ± 7.7 µM in series [4]. Moreover, the inhibition at 30 µM in series [2] worked out at 7.2 ± 1.7%.
`CS(=O)(=O)SCCN` [Compound 10, S-(2-aminoethyl) methanesulfonothioate, reference compound]: in series [1], the “Grb2 % Inhibition 3 μM” value is listed as 12.3^a %. In addition, the IC50 in series [2] and in series [3] was above 3 µM in each case.
For the molecule `CCCC(CCC)C(=O)O` [VA, valproic acid, reference compound], the inhibition at 30 µM in series [2] is 0.2 ± 3.2%; in series [3] it was 2.7 ± 3%. Besides, the IC50 in series [2] and in series [3] was above 30 µM each time.
Take `CCCC(CCC)C(=O)NCCSS(C)(=O)=O` [Compound 2, S-(2-(2-propylpentanamido)ethyl) methanesulfonothioate]: the “Grb2 % Inhibition 3 μM” value in series [1] was −23.3^a %. Besides, in series [2], the inhibition at 3 µM worked out at 67.2 ± 11%, the inhibition at 30 µM was found to be 106% and the IC50 came out at 1.4 ± 0.1 µM. In series [3], the inhibition at 3 µM stood at 1.9 ± 2.2% and the IC50 is above 3 µM. Also, the “antiproliferative / cytotoxic activity” value in series [4] is reported as “inefficacious at concentration up to 100–200 μM”.
Turning to `Cc1ccc(S(=O)(=O)SCC(=O)Nc2ccc(C(=O)O)c(O)c2)cc1` [Compound 6, 2-Hydroxy-4-(2-(tosylthio)acetamido)benzoic acid], in series [2], the inhibition at 3 µM came out at 46 ± 0.8%, the inhibition at 30 µM was found to be 58.4 ± 1.1% and the IC50 came out at 4.9 ± 0.4 µM. Moreover, in series [3], the inhibition at 3 µM worked out at 18 ± 0.2%, the inhibition at 30 µM is 39.6 ± 0.8% and the IC50 is above 30 µM. Besides, in series [4], the IC50 was above 200 µM.
As to `CS(=O)(=O)SCCOC(=O)Cc1ccccc1Nc1c(Cl)cccc1Cl` [Compound 5, 2-((methylsulfonyl)thio)ethyl 2-(2-((2,6-dichlorophenyl)amino)phenyl)acetate], in series [1], the “Grb2 % Inhibition 3 μM” value is 77.8^a %. In series [2], the inhibition at 3 µM stood at 110 ± 2.2%, the inhibition at 30 µM was determined as 102% and the IC50 was found to be 0.5 ± 0.2 µM. Further, in series [3], the inhibition at 3 µM worked out at 35.4 ± 2.1% and the IC50 was above 3 µM. Also, in series [4], the “antiproliferative / cytotoxic activity” value was “inefficacious at concentration up to 100–200 μM”.
On to `CC1=C(CC(=O)O)c2cc(F)ccc2/C1=C\c1ccc([S+](C)[O-])cc1` (centres unmarked) [Sulindac, sulindac, reference compound], for which, in series [2], the inhibition at 30 µM is 4.2 ± 3.2% and the IC50 is above 30 µM. In addition, in series [3], the inhibition at 30 µM turned out to be 4.9 ± 2% and the IC50 is above 30 µM.
For `CC(=O)Oc1ccccc1C(=O)O` [ASA, acetyl salicylic acid, reference compound], in series [2], the inhibition at 30 µM was found to be 3.8 ± 1.9% and the IC50 was above 30 µM. In addition, in series [3], the inhibition at 30 µM stood at 6.3 ± 1.7% and the IC50 was above 30 µM.
